How the values were obtained:
Assay in all cases: Broth dilution growth inhibition (OD600)
Type in all cases: cell-based
[1] = tested on: Pseudomonas aeruginosa ATCC28753; conditions: TSB, mean ± SD, triplicate; for Inhibitory percentage, P. aeruginosa: synthetic peptides
Procedure: (§1) Three human pathogenic bacteria were selected for investigation, namely Bacillus subtilis ATCC6633, Pseudomonas aeruginosa ATCC28753, and Burkholderia cepacia ATCC25416.
(§2) In evaluating antibacterial activity by the broth dilution assay, human pathogenic bacteria were first prepared in tryptic soy agar (TSA) (Difco BBL, Sparks, MD, USA) for 24 h at 28 °C. Then, a single colony was cultured in tryptic soy broth (TSB) (Difco BBL, Sparks, MD, USA) for 12–16 h to reach an inoculum of 0.05 at OD600. The antibacterial activity of lower than 3 kDa protein hydrolysates/peptides was then determined against the pathogens in triplicate using 96-well microplates, with bacteria in TSB, phosphate-buffered saline (PBS), and antibiotic treatment (ampicillin and kanamycin) used as controls. The final concentration of antibiotics and protein hydrolysates/peptides was 100 µg/mL. After incubation for 0, 2, 4, and 6 h, the OD600 was documented using a microplate reader (Synergy H1 Hybrid Multi-Mode Reader, Biotek, Winusky, VT, USA).
(§3) A completely randomized design was used: protein hydrolysates/peptides from six agricultural wastes, seven agro-industrial wastes, and two fishery wastes as treatments; and human pathogenic bacteria P. aeruginosa ATCC28753, Bacillus subtilis ATCC6633, and Burkholderia cepacia ATCC25416 grown in tryptic soy broth (TSB) (Difco BBL, Sparks, MD, USA) at 28 °C in 96-well plates as experimental units. Experiments were conducted in triplicate and all the results shown in this study are presented as mean ± standard deviation (SD).

[2] = tested on: Burkholderia cepacia ATCC25416; conditions: TSB, mean ± SD, triplicate; for Inhibitory percentage, Burkholderia cepacia: 100 µg/mL
Procedure: as §1, §2, §3

[3] = tested on: Bacillus subtilis ATCC6633; conditions: TSB, mean ± SD, triplicate; for Inhibitory percentage, Bacillus subtilis: 100 µg/mL
Procedure: as §1, §2, §3

[4] = lower than 3 kDa hydrolysates and antibiotics, 6 h after treatment, 96-well

Compound	Inhibitory percentage, P. aeruginosa ([1]; 100 µg/mL)	Inhibitory percentage, Burkholderia cepacia ([2]; synthetic peptides)	Inhibitory percentage, Bacillus subtilis ([3]; synthetic peptides)	other results
CC1(C)S[C@@H]2[C@H](NC(=O)[C@H](N)c3ccccc3)C(=O)N2[C@H]1C(=O)O [ampicillin, reference compound]	–	–	–	inhibition at 100 µg/mL ([1]; Pseudomonas aeruginosa, ATCC28753, lower than 3 kDa hydrolysates and antibiotics, 6 h after treatment, 96-well, read-out: Inhibitory percentage, Pseudomonas aeruginosa): 32 ± 1.59%; inhibition at 100 µg/mL ([2]; Burkholderia cepacia, ATCC25416, lower than 3 kDa hydrolysates and antibiotics, 6 h after treatment, 96-well, read-out: Inhibitory percentage, Burkholderia cepacia): 32.8 ± 4.18%; inhibition at 100 µg/mL ([3]; Bacillus subtilis, ATCC6633, lower than 3 kDa hydrolysates and antibiotics, 6 h after treatment, 96-well, read-out: Inhibitory percentage, Bacillus subtilis): 85.2 ± 10.6%
NC[C@H]1O[C@H](O[C@H]2[C@H](O)[C@@H](O[C@H]3O[C@H](CO)[C@@H](O)[C@H](N)[C@H]3O)[C@H](N)C[C@@H]2N)[C@H](O)[C@@H](O)[C@@H]1O [kanamycin, reference compound]	–	–	–	Inhibitory percentage, Pseudomonas aeruginosa ([1]; lower than 3 kDa hydrolysates and antibiotics, 100 µg/mL, 6 h after treatment, 96-well): 39.00 ± 2.81%; Inhibitory percentage, Burkholderia cepacia [2, 4]: 87.02 ± 0.42%; Inhibitory percentage, Bacillus subtilis [3, 4]: 77.60 ± 0.85%
GAFHVTGL [compound 1, synthetic peptide from bagasse (AW6) hydrolysate; Photosystem II CP47 reaction center protein fragment]	21.74 ± 0.96	9.09 ± 0.04	3.82 ± 0.09	–
NLWSNEINQDMAEF [Peptide no.3, Asn-Leu-Trp-Ser-Asn-Glu-Ile-Asn-Gln-Asp-Met-Ala-Glu-Phe, synthetic peptide from bagasse (AW6) hydrolysate; LRR receptor-like serine/threonine-protein kinase GSO2 fragment]	24.87 ± 0.81	23.32 ± 0.68	11.33 ± 0.29	–
VLSSWGDESTL [compound 2, synthetic peptide from bagasse (AW6) hydrolysate; RNA helicase fragment]	23.61 ± 0.12	14.92 ± 0.72	4.45 ± 0.03	–
VSNCL [Peptide no.4, Val-Ser-Asn-Cys-Leu, synthetic peptide from bagasse (AW6) hydrolysate; 3-ketoacyl-CoA synthase fragment]	24.70 ± 0.81	20.56 ± 0.28	10.39 ± 0.33	–
WDTDNLSPDAVAAIKAAHPNVAVMAGL [compound 5, synthetic peptide from bagasse (AW6) hydrolysate; Chitinase fragment]	30.34 ± 0.95	20.51 ± 0.48	5.97 ± 0.06	–

— paper PMC10044114, “Mechanisms of Antimicrobial Peptides from Bagasse against Human Pathogenic Bacteria” (Antibiotics, 2023)
